Source: PMC6009935 (Journal of Enzyme Inhibition and Medicinal Chemistry, 2017)
Like-named read-outs stand apart in the source and are kept apart here.

Tested on: G-protein
Assay: Functional [35S]GTPγS binding assay on rat brain membrane homogenates
Type: biochemical
Procedure: The experiments were performed by [35S]GTPγS binding assays to control the GDP to GTP exchange of the α-subunit of Gi-protein. […] We examined the opioid receptor binding affinity of 5 in competition binding experiments, using opioid receptor selective radioligands. […]
Functional [35S]GTPγS binding experiments
The functional [35S]GTPγS binding experiments were performed as previously described,5,6 with modifications. Briefly the rat brain membrane homogenates containing ~10 µg/mL protein were incubated at 30 °C for 60 min in Tris-EGTA buffer (pH 7.4) composed of 50 mM Tris-HCl, 1 mM EGTA, 3 mM MgCl2, 100 mM NaCl, containing 20 MBq/0.05 cm3 [35S]GTPγS (0.05 nM) and […]
compound 9 together with excess GDP (30 µM) in a final volume of 1 mL. Total binding was measured in the absence of test compounds, non-specific binding was determined in the presence of 10 µM unlabelled GTPγS. The bound and unbound [35S]GTPγS was separated as described in the […]
competition binding assays section through Whatmann GF/B glass fibers. The radioactivity of the filters was also detected as described above. [35S]GTPγS binding experiments were performed in triplicates and repeated at least three times.
The specific binding of all radiolabeled compounds was calculated by the subtraction of non-specific binding from total binding and was given in percentage. The data was normalized to total specific binding, which was settled 100%, which in case of [35S]GTPγS also represents the basal activity of the G-protein. Experimental data were presented as means ± S.E.M in the function of the applied ligand concentration range in logarithm form. Points were fitted with the professional curve fitting program, GraphPad Prism 5.0 (GraphPad Prism Software Inc., San Diego, CA), using non-linear regression. In the radioligand competition binding assays the ‘One-site competition’, while in [35S]GTPγS binding assays the ‘Sigmoid dose-response’ equation was applied to determine IC50 (unlabeled ligand affinity) and the maximum G-protein efficacy (Emax) and ligand potency (EC50), respectively. For IC50 and EC50 values standard error is only given in their logarithm form by the curve fitting program due to the data representation. In competition binding experiments the Ki value was calculated according to Cheng-Prusoff equation.7 […]
binding assays. In figure B, 5 is indicated again for better comparison. Figures represents the specific binding of [35S]GTPγS in percentage in the presence of increasing concentrations (10-10-10-5 M) of the indicated ligands in rat brain membrane homogenates. “Basal” on the x-axis indicates the basal activity of the monitored G-protein, which is measured in the absence of the compounds and also represents the total specific binding of [35S]GTPγS. The level of basal activity was defined as 100% and is presented with a dotted line. Points represent means ± S.E.M. for at least three experiments performed in triplicate.

[1] = rat brain membrane homogenates, basal activity = 100%
[2] = rat brain membrane homogenates, logarithm of EC50, negative sign printed

Row | SMILES | Emax ± S.E.M. (maximal G-protein efficacy) [1] [%] | LogEC50 ± S.E.M. (ligand potency) [2] | agonist, antagonist or inverse agonist nature | EC50 (rat brain membrane homogenates) [nM] | EC50 [nM] | Emax ± S.E.M. (maximal G-protein efficacy) [%] | LogEC50 ± S.E.M. (ligand potency) | maximum efficacy (Emax) above basal activity [%]
1 | Cc1c(C(=O)NC2CCNCC2)nn(-c2ccc(Cl)cc2Cl)c1-n1cccc1 [Compound 5] | 99.2 ± 46.1 | ambiguous ^* | – | – | – | – | – | –
2 | Cc1c(C(=O)NC2CCN(C(=O)[C@H](Cc3ccccc3)NC(=O)CNC(=O)[C@@H](C)NC(=O)[C@@H](N)Cc3ccc(O)cc3)CC2)nn(-c2ccc(Cl)cc2Cl)c1-n1cccc1 [Compound 9] | 36.62 ± 10.35 | −5.44 ± 0.21 | inverse agonist | 3600 | – | – | – | –
3 | C[C@@H](NC(=O)[C@@H](N)Cc1ccc(O)cc1)C(=O)NCC(=O)N[C@@H](Cc1ccccc1)C(N)=O [Compound 10, Tyr-D-Ala-Gly-Phe-NH2, reference compound] | – | – | agonist | – | 81.3 | 161.5 ± 4.08 | −7.09 ± 0.22 (81.3 nM) | ~70
